The source of these data is patent publication EP4671240A1, “SALT CONTAINING AROMATIC RING DERIVATIVE ANTAGONIST, PREPARATION METHOD THEREFOR, AND APPLICATION THEREOF” (Jiangsu Hansoh Pharmaceutical Group Co., Ltd., priority 2023, dated 2024).

A short description of data set [1]: Rat pharmacokinetic evaluation assay (oral). To be noted: male, SD rats, p.o. 5 mg/kg, plasma; for MRT inf: read-out: MRT 0-∞. The class given is in vivo. As for the experimental part:
6. Experimental conclusion: It can be seen from the data in the table that the example compounds shown in the present invention show good antagonistic effects in the experiment of the effect on calcium current in cells stably expressing ETA receptors. 2. Rat pharmacokinetic evaluation assay 1. Study objective: SD rats were used as test animals to study the pharmacokinetic behaviour of the compounds of the present invention in rat (plasma) after oral administration at a dose of 5 mg/kg. 2. Experimental scheme: • 2.1 Experimental drugs: The example compounds of the present invention, made in house. • 2.2 Experimental animals: 3 SD rats/group, male, from Shanghai Jiesijie Experimental Animal Co., Ltd., animal production license number (SCXK (Shanghai) 2013-0006 N0.311620400001794). 2.3 Preparation formulation: 0.5% CMC-Na (1% Tween80) was dissolved by ultrasonication, and formulated into a clear solution or homogeneous suspension. 2.4 Administration: • p.o. respectively after the rats were fasted overnight; • the p.o. dose was 5 mg/kg and the administration volume was 10 mL/kg. 2.5 Sample collection: After oral administration of rats, 0.2 mL of blood was collected from the jugular vein at 0.25 h, 0.5 h, 1.0 h, 2.0 h, and 4.0 h, placed in an EDTA-2K test tube, and centrifuged at 6000 rpm for 6 min at 4°C to separate plasma which was stored at - 80°C; the animals were fed 4 h after administration. 2.6 Sample treatment: • 1) Acetonitrile (160 µL) was added to plasma sample (40 µL) for precipitation, and the mixture was centrifuged at 3500 × g for 5-20 min. • 2) The treated supernatant solution was taken and subjected to LC/MS/MS to analyse the concentrations of the test compound. LC/MS/MS analysis instrument: AB Sciex API 4000 Qtrap. 2.7 Liquid phase analysis: • Liquid phase conditions: Shimadzu LC-20AD pump • Chromatographic column: Agilent ZORBAX XDB-C18 (50×2.1 mm, 3.5 µm), mobile phase: liquid A: 0.1% formic acid in water, liquid B: acetonitrile • Flow rate: 0.4 mL/min • Elution time: 0-4.0 min, the eluent was as follows:
The main pharmacokinetic parameters were calculated using WinNonlin 6.1. The results of pharmacokinetic experiments in rats are as shown in Table 13 below: Table 13: Pharmacokinetic parameters of the compounds of the present invention in rats after oral administration

Data set [2] in a line: Liver microsomal metabolism stability assay (rat). The class given is in vitro ADME. As to conditions: compound 1 µM; for half-life at 1 µM: rat liver microsomes 0.5 mg/mL, NADPH/UDPGA, read-out: Rat t1/2; for Rat Remaining rate: rat liver microsomes, 60 min. The protocol:
(§1) The objective of this experiment was to detect the stability of the example compounds in liver microsomes of rats, dogs and humans.
(§2) Formulation of compound working solution: compound stock solution was added to phosphate buffer to a final concentration of 20 µM.
(§3) Dilution was performed with 100 mM phosphate buffer to a final concentration of 0.625 mg/mL.
(§4) NADPH (reduced nicotinamide adenine dinucleotide phosphate) and UDPGA (uridine diphosphate glucuronic acid) were weighed, and 100 mM phosphate buffer was added to a final concentration of 20 mM.
(§5) 1 mg of Alamethicin was weighed, and 200 µL of DMSO was added to formulate a 5 mg/mL solution. Then dilution was performed with phosphate buffer to a final concentration of 50 µg/mL.
(§6) Stop solution: cold acetonitrile containing 100 ng/mL labetalol hydrochloride and 400 ng/mL tolbutamide as internal standards.
(§7) 400 µL of formulated liver microsomes, 25 µL of compound working solution and 25 µL of Alamethicin were added in sequence to a 96-well plate, and the mixture was pre-incubated at 37°C for 10 min. Then 50 µL of formulated NADPH/UDPGA was added to start the reaction and the mixture was incubated at 37°C. The total volume of the reaction system was 500 µL. The final contents of each component are as follows:
(§8) • Instrument: Shimadzu LC-30 AD; • Chromatographic column: XBridge® C18 (50*4.6 mm, 5 µm particle size); • Mobile phase: A: 0.1% formic acid solution, B: methanol • Elution gradient: 0.2-1.6 min 5% A to 95% A, 3.0-3.1 min 95% A to 5% A • Run time: 4.0 min.
(§9) • Instrument: API5500 liquid chromatography-mass spectrometer, AB Sciex; • Ion source: electrospray ionization source (ESI); • Drying gas: N2, temperature 500°C; • Electrospray voltage: 5000 V; • Detection mode: positive ion detection; • Scan mode: Multiple Reaction Monitoring (MRM) mode.

Data set [3] can be described thus: Liver microsomal metabolism stability assay (dog). Format: in vitro ADME. To be noted: compound 1 µM; for half-life at 1 µM: dog liver microsomes 0.5 mg/mL, NADPH/UDPGA, read-out: Dog t1/2; for Dog Remaining rate: dog liver microsomes, 60 min. As for the experimental part: as §1, §2, §3, §4, §5, §6, §7, §8, §9
For data set [4], the target named is T1, CYP450 1A2 (Homo sapiens, UniProt P05177).
T1 construct: Human liver microsome incubation system was used; from tissue; host or cells: human liver microsomes
T1 sequence (P05177 1-516): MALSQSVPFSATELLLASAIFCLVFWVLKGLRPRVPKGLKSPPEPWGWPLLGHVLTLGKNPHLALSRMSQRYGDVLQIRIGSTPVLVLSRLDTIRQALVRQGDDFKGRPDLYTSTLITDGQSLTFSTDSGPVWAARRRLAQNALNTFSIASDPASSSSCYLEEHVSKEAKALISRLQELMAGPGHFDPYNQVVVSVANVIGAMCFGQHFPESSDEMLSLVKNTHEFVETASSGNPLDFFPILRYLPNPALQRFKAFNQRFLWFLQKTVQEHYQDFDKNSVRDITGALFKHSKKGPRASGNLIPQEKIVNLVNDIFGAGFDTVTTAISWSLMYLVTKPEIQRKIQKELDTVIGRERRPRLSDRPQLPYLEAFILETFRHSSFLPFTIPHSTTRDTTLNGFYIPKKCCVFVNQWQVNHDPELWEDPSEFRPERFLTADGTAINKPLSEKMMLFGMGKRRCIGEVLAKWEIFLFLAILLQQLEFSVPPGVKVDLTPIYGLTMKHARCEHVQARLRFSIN
The experiment in a line: CYP enzyme single-point inhibition assay, 1A2. The class given is in vitro ADME. As to conditions: human liver microsomes, single-point method. As for the experimental part:
Human liver microsome incubation system was used, and the single-point method was used to quickly predict the inhibition on CYP450 enzyme subtypes (1A2, 2C19, 2D6, 3A4-M, and 3A4-T) by compounds.
For 2.5 mM NADPH, 4.165 mg of NADPH (reduced nicotinamide adenine dinucleotide phosphate) was weighed and 100 mM phosphate buffer was added to a final volume of 2 mL. For 0.25 mg/mL microsomes, 50 µL of 20 mg/mL microsomes was mixed with […] of 100 mM phosphate buffer evenly.
The test example compounds were weighed, diluted to 10 mM with DMSO, and then diluted to 100 µM with 100 mM phosphate buffer.
• 1. Liver microsomes (40 µL), substrate (10 µL), and test compound (10 µL) were added to a 96-well plate, and the mixture was pre-incubated for 3 min. • 2. NADPH (40 µL) was added. • 3. At 20 min, acetonitrile stop solution containing internal standard (300 µL) was added. • 4. The mixture was centrifuged and the sample was loaded.

Consider `[2H]C([2H])(c1ccc(-c2ccccc2S(=O)(=O)Nc2noc(C)c2Cl)c(COCC)c1)N1C(=O)C2(CCCC2)N=C1CCCC` [Example 2, 4'-((2-Butyl-4-oxo-1,3-diazaspiro[4.4]non-1-en-3-yl)methyl-d2)-N-(4-chloro-5-methylisoxazol-3-yl)-2'-(ethoxymethyl)-[1,1'-biphenyl]-2-sulfonamide], for which, in data set [1], the AUC(0-inf) came out at 10200 ng·h/mL, the Cmax was found to be 1690 ng/mL, the Tmax came to 30 min and the MRT inf worked out at 504 min. Besides, in data set [2], the half-life at 1 µM was 26.3 min and the “Rat Remaining rate” value was 29.4%. For the same compound, in data set [3], the half-life at 1 µM came out at 29.9 min and the “Dog Remaining rate” value was 24.6%. The IC50 in data set [4] is more than 100 µM.

Take `CCCCC1=NC2(CCCC2)C(=O)N1Cc1ccc(-c2ccccc2S(=O)(=O)Nc2noc(C)c2Cl)c(COCC)c1` [Example 8, 2-[4-[(2-Butyl-4-oxo-1,3-diazaspiro[4.4]non-1-en-3-yl)methyl]-2-(ethoxymethyl)phenyl]-N-(4-chloro-5-methyl-isoxazol-3-yl)benzenesulfonamide]: in data set [1], the AUC(0-inf) was 16000 ng·h/mL, the highest level (Cmax) was 2140 ng/mL, the time of peak concentration (Tmax) is 30 min and the MRT inf amounted to 516 min. Further, in data set [2], the half-life at 1 µM came to 29.9 min and the “Rat Remaining rate” value was 23.3%. In addition, in data set [3], the half-life at 1 µM was 28.5 min and the “Dog Remaining rate” value is reported as 23.6%. Also, the IC50 in data set [4] is more than 100 µM.
